Experimental findings from PubChem BioAssay AID602191 (Broad Institute, 2012) are described below.

Calls of active or inactive are those of the source.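 The calls were made as follows: active = fitted curve reaches 40% activation at a concentration no higher than the top valid tested dose; inconclusive = flat fit between 30% and 70% activation, or poor fit; inactive = uptake decrease, flat fit within 30% of zero, the rest.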 A value given as a limit tells only on which side of the number the result lay.

For the first assay, the target named is Scavenger receptor class B member 1 (Mus musculus) (UniProt Q61009). Description: enhancers of DiI-HDL lipid transfer via SR-BI – cell-based, ldlA[mSR-BI] CHO, DiI fluorescence, cherry-pick, dose response (AID 602191).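 Also: cell fluorescence from internalized DiI-labeled HDL after washing.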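 As to AC40: potency of activators raising HDL uptake.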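 As to activation (HDL uptake increase): 0% = median of DMSO wells and 100% = twice the DMSO signal.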 As to conditions: ldlA[mSR-BI] CHO cells, 3 h, at 35 µM (top of the series).
Scavenger receptor class B member 1 (Mus musculus), sequence (Q61009 whole entry, looked up): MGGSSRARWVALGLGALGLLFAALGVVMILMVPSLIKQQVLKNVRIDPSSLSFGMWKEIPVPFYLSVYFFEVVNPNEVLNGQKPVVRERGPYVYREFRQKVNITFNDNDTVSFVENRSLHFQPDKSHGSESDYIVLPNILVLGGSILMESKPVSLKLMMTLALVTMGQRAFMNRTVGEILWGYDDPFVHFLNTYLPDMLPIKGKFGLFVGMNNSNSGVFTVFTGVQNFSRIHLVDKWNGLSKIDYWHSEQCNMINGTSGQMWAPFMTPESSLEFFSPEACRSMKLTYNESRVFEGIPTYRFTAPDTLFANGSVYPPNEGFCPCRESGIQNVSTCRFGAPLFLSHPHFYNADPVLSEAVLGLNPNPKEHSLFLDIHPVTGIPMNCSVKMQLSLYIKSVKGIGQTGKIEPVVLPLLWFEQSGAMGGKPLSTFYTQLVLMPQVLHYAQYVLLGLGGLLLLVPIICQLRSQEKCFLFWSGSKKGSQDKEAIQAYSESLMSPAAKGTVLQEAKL
With `COCCNC(=O)c1onc(CSc2cccc(OC)c2)c1C(=O)O`, the activation (HDL uptake increase) was 11.9% (inactive).

As to `O=C(OCCc1cc2ccccc2c(=O)o1)c1ccc(F)cc1`, the activation (HDL uptake increase) was -13.6% (inactive).

In the case of `CCCCNC(=O)CCCCC(=O)N/N=C/c1cccc(Cl)c1`, the activation (HDL uptake increase) was -17.4% (inactive).

For `Cn1c(C(=O)N2CCC(C(N)=O)CC2)cc2cc(Cl)ccc21`, the activation (HDL uptake increase) was -7.74% (inactive).

For `Cc1ccc(S(=O)(=O)N2CCC(=O)N(CCOCc3cccc(F)c3)CC2)cc1`, the activation (HDL uptake increase) was 5.46% (inactive).

With `CCOC(=O)C1CCCN(C(=O)CS(=O)(=O)Cc2ccccc2)C1` (stereo not drawn), the activation (HDL uptake increase) was 7.75% (inactive).

On to `Cc1ccc(C2(CCNCc3ccc(N(C)C)cc3)CCOC(C(C)C)C2)cc1` (stereo not drawn), for which the activation (HDL uptake increase) is -1.19% (inactive).

With `Cc1cc(NC(=O)CN2C(=O)NC(C)(c3ccc(OC(F)F)cc3)C2=O)no1` (stereo not drawn), the activation (HDL uptake increase) was -7.97% (inactive).

For `Cc1cccc(NC(=O)CCC(=O)OCc2ccc(Br)cc2)c1`, the activation (HDL uptake increase) was -7.9% (inactive).

Turning to `O=C1CCC(C(=O)N2CCCCCCC2)CN1Cc1cccc(C(F)(F)F)c1` (stereo not drawn), the activation (HDL uptake increase) is -0.452% (inactive).

Take `COc1ccc(Cn2c(N)c(S(=O)(=O)c3cccs3)c3nc4ccccc4nc32)cc1`: the activation (HDL uptake increase) is -19.6% (inactive).

As for `COc1ccccc1NC(=O)CCC(=O)OCc1cccc([N+](=O)[O-])c1`, the activation (HDL uptake increase) is -10.7% (inactive).

For `CN(C)S(=O)(=O)c1ccc(N2CCCC2)c(C(=O)NC2CCC(O)CC2)c1` (stereo not drawn), the activation (HDL uptake increase) was -3.29% (inactive).

`O=C(CCC(=O)N1CCOc2ccc(Cl)cc21)NCCCN1CCN(Cc2ccccc2)CC1`: the activation (HDL uptake increase) is 4.6% (inactive).

On to `C[C@H](CO)N1C[C@H](C)[C@H](CN(C)C)Oc2ccc(NS(=O)(=O)c3ccc(F)cc3)cc2CC1=O`, for which the activation (HDL uptake increase) was -7.7% (inactive).

As for `O=C(C[C@H]1C/C=C\C[C@@H](Cc2ccc(F)cc2)C(=O)OC[C@H]2CCCN2C1=O)N[C@H](CO)Cc1ccccc1`, the activation (HDL uptake increase) was 6.35% (inactive).

As for `O=C(Cn1c(C(=O)NCCCN2CCOCC2)cc2sccc21)c1ccccc1`, the activation (HDL uptake increase) was 0.656% (inactive).

In the case of `CC(C)CCNCC(=O)NC(c1ccccc1)c1ccccc1`, the activation (HDL uptake increase) is -2.56% (inactive).

As for `CCCCC(=O)OCC(=O)C1(O)Cc2c(O)c3c(c(O)c2C(OC2CC(NC(=O)C(F)(F)F)C(O)C(C)O2)C1)C(=O)c1c(OC)cccc1C3=O` (stereo not drawn), the activation (HDL uptake increase) was 16.6% (inactive).

As for `CC(C)OC(=O)C1C(=O)CC(C)(O)C(C(=O)OC(C)C)C1c1cccc([N+](=O)[O-])c1` (stereo not drawn), the activation (HDL uptake increase) is -0.289% (inactive).

`CC(OC(=O)c1ccc(S(=O)(=O)N2CCCCC2)cc1)C(=O)Nc1ccc(C(N)=O)cc1` (stereo not drawn): the activation (HDL uptake increase) is 0.807% (inactive).

Turning to `CN1CCN(S(=O)(=O)c2cccc(C(=O)NC3(C)CCS(=O)(=O)C3)c2)CC1` (stereo not drawn), the activation (HDL uptake increase) was -5.92% (inactive).

Regarding `COc1ccc(-n2nc3c(c2NC(=O)c2ccc(S(=O)(=O)N4CCOCC4)cc2)CS(=O)C3)cc1` (stereo not drawn), the activation (HDL uptake increase) was -10.8% (inactive).

For the compound `CC(C)CC(=O)c1c(O)c(C=O)c(O)c2c1O[C@@]1(C)[C@@H](C2)C[C@H]2C[C@@H]1C2(C)C`, the activation (HDL uptake increase) was -25.2% (inactive).

For the compound `CN1CCN(C(=O)C2CCN(S(=O)(=O)c3ccc4c(c3)oc(=O)n4C)CC2)CC1`, the activation (HDL uptake increase) is -0.287% (inactive).

As to `CCN(CC)C(=O)c1ncn(Cc2ccccc2)c1C(=O)N(CC)CC`, the activation (HDL uptake increase) is -3.26% (inactive).

Regarding `Cc1ccc(O)c(NC(=S)NC(=O)c2ccc(-c3ccc(Cl)cc3)o2)c1`, the activation (HDL uptake increase) was -9.38% (inactive).

On to `O=C1C2C(c3ccccc3)CC=CC2[C@H](c2ccc(C(F)(F)F)cc2)N1Cc1ccccc1` (stereo partly drawn), for which the activation (HDL uptake increase) is -16.7% (inactive).

In the case of `Cc1ccc(S(=O)(=O)NC(=O)COc2ccccc2C)c(C)c1`, the activation (HDL uptake increase) was 11.3% (inactive).

For the compound `COc1ccc(NC(=O)CN(C)C(=O)CCC2CCCC2)cc1`, the activation (HDL uptake increase) is -6.8% (inactive).

As to `O=C(NNC(=S)Nc1cccc2ccccc12)c1cccc(Br)c1`, the activation (HDL uptake increase) is -30.7% (inactive).

Turning to `CC(=O)Nc1ccc(OC(=O)c2ccco2)cc1`, the activation (HDL uptake increase) was -1.69% (inactive).

On to `COc1ccc(C(CNS(=O)(=O)c2ccc(NC(C)=O)c(OC)c2)N2CCCCC2)cc1` (stereo not drawn), for which the activation (HDL uptake increase) is 5.72% (inactive).

Consider `COC(=O)[C@@]12CCCCN1[C@H](c1ccc(-c3ccc(C(C)=O)cc3)c(OC)c1)[C@@H]1C(=O)N(C)C(=O)[C@@H]12`, for which the activation (HDL uptake increase) is -14% (inactive).

Regarding `O=C(Cn1nc(-c2ccccc2)ccc1=O)Nc1ccc(-n2cnnn2)cc1`, the activation (HDL uptake increase) was 12% (inactive).

`CCN1C[C@@H]2[C@@H]3C(=O)N(Cc4ccccc4)C(=O)[C@@H]3[C@](C)(C1=O)N2C(=O)c1ccc(Br)cc1`: the activation (HDL uptake increase) was 1.77% (inactive).

With `COC(=O)c1ccc([C@@H](O)[C@H](C)C(=O)CC(=O)OC(C)(C)C)cc1`, the activation (HDL uptake increase) was 4.09% (inactive).

Take `COc1ccc2oc(C(=O)OCC(=O)Nc3ccc(C(=O)N(C)C)cc3)c(C)c2c1`: the activation (HDL uptake increase) was -13.1% (inactive).

For `CC(C)N1CCc2[nH]c(=S)[nH]c(=O)c2C1`, the activation (HDL uptake increase) is -0.502% (inactive).

With `O=C(CCNC(=O)c1ccccc1Cl)NN1C(=O)NC2(CCCCC2)C1=O`, the activation (HDL uptake increase) is -10.8% (inactive).

`Cc1ncc(CN2CCC(n3nccc3NC(=O)c3ccccc3)CC2)s1`: the activation (HDL uptake increase) is 8.83% (inactive).

Consider `O=C(O)COCC(=O)N1CCc2c([nH]c3ccccc23)C1C(F)(F)F` (stereo not drawn), for which the activation (HDL uptake increase) was -5.94% (inactive).

With `O=C(CSc1nnnn1-c1ccccc1)N1CCNC1=O`, the activation (HDL uptake increase) was -10.4% (inactive).

Consider `CN(C)c1nc(C#N)nc(N2CCOCC2)n1`, for which the activation (HDL uptake increase) was 4.22% (inactive).

With `CN1CCN(C(=O)C2CCCN(S(=O)(=O)c3ccc(Br)cc3)C2)CC1` (stereo not drawn), the activation (HDL uptake increase) is -5.87% (inactive).

Take `CN(C)CCn1c2c(c(SCC(=O)NCc3ccccc3)nc1=O)CCCC2`: the activation (HDL uptake increase) is 5.5% (inactive).

`O=C(COc1ccc(C(=O)c2ccccc2)cc1)NC1CCCCC1`: the activation (HDL uptake increase) is -7.46% (inactive).

As for `Cc1ccc(N2C(=O)C(Cc3ccc(O)cc3)NC2=S)cc1C` (stereo not drawn), the activation (HDL uptake increase) was -11.4% (inactive).

Turning to `CCO[C@H]1OC(C(=O)N2CCOCC2)=C[C@@H](c2ccccc2)[C@@H]1CCCO`, the activation (HDL uptake increase) is -6.57% (inactive).

On to `C=CCOC(=O)C1=C[C@H](c2ccc(C(F)(F)F)cc2)C[C@H](OCCCCO)O1`, for which the activation (HDL uptake increase) was -10.3% (inactive).

For `C=CCC[C@@H](Cc1ccc(F)cc1)C(=O)OC[C@@H](Cc1c[nH]c2ccccc12)NC(=O)[C@@H](CC=C)CC(=O)N[C@@H](CO)Cc1ccccc1`, the activation (HDL uptake increase) is 47.8% (inactive).

On to `CCCC(=O)Nc1cc(C(=O)O)ccc1S(=O)(=O)c1ccc(C)cc1`, for which the activation (HDL uptake increase) is 1.17% (inactive).

In the case of `O=C(NCCCCc1ccccc1)C1CC(c2cccc(F)c2)=NO1` (stereo not drawn), the activation (HDL uptake increase) is -4.48% (inactive).

On to `O=C(N/N=C\c1cccnc1)c1ccc(Br)s1`, for which the activation (HDL uptake increase) was -10.3% (inactive).

Take `Cc1cc(OCC(=O)OCC(=O)NC2CCCCC2C)ccc1Cl` (stereo not drawn): the activation (HDL uptake increase) was -2.13% (inactive).

As for `CC1(C)CC(=O)C2=C(C1)N(CC1CCCO1)C(=O)C2(O)C(F)(F)F` (stereo not drawn), the activation (HDL uptake increase) was 8.29% (inactive).

Consider `COc1ccc2c(CC(=O)NCC3CCC(C(=O)O)CC3)cc(=O)oc2c1` (stereo not drawn), for which the activation (HDL uptake increase) is 15.1% (inactive).

With `O=C(NCc1cccs1)C1CCCN(C(=O)Nc2ccccc2)C1` (stereo not drawn), the activation (HDL uptake increase) is 7.76% (inactive).

Consider `CC(C)(C)NC(=O)C[C@H]1C[C@H](C(=O)N2CCOCC2)[C@@]2(CCC3CCCC3)c3[nH]c4cc(-c5ccco5)ccc4c3CCN2C1=O`, for which the activation (HDL uptake increase) is -1.73% (inactive).

Consider `O=C(CCN1C(=O)/C(=C\C=C\c2ccccc2)SC1=S)Nc1ccc(C(=O)O)cc1`, for which the activation (HDL uptake increase) was -14.1% (inactive).

Consider `CCOC(=O)N1CCC(N2C(=O)c3ccccc3C2Nc2cc(OC)c(OC)c(OC)c2)CC1` (stereo not drawn), for which the activation (HDL uptake increase) is 13% (inactive).

In the case of `O=C(CNC(=O)c1ccc(Cl)cc1)NCC(F)(F)F`, the activation (HDL uptake increase) is -9.51% (inactive).

As to `Cc1c(C)c2ccc(OCC(=O)NC(Cc3c[nH]c4ccc(O)cc34)C(=O)O)c(C)c2oc1=O` (stereo not drawn), the activation (HDL uptake increase) was -0.695% (inactive).

Turning to `Cc1c(/C(O)=C2/C(=O)C(=O)N(CCN3CCOCC3)C2c2cccnc2)cnn1-c1ccccc1` (stereo not drawn), the activation (HDL uptake increase) was -0.755% (inactive).

Take `CCOc1ccc(CNC(=O)CCS(=O)(=O)c2ccc3c(c2)oc(=O)n3C)cc1`: the activation (HDL uptake increase) was 8.83% (inactive).

With `Cc1cccc(NC(=O)CN2CCN(C(=O)C3CCCO3)CC2)c1C` (stereo not drawn), the activation (HDL uptake increase) is -0.486% (inactive).

In the case of `CN(C)CCCNC(=O)Cc1ccc(Br)cc1`, the activation (HDL uptake increase) is 0.791% (inactive).

`CC(=O)N1CCN(S(=O)(=O)c2cccc(C(=O)Nc3cc(C(F)(F)F)ccc3N3CCOCC3)c2)CC1`: the activation (HDL uptake increase) was -3.42% (inactive).

The assay is the same for the next values; noted with them: ldlA[mSR-BI] CHO cells, DiI-HDL uptake fluorescence, 3 h.
Consider `CC(C)NC(=O)C1(O)c2ccccc2NC(=O)N1c1ccc(Cl)c(Cl)c1` (stereo not drawn), for which the AC40 was > 35 µM (inactive).

Take `Cc1ccc(OCC(=O)OC(C)C(=O)NC2CCCCC2C)cc1C` (stereo not drawn): the AC40 was > 35 µM (inactive).

`Cc1ccc(S(=O)(=O)Nc2ccc3c(c2)C(=O)N([C@H](C)CO)C[C@H](C)[C@@H](CN(C)Cc2ccc(-c4ccccc4)cc2)O3)cc1`: the AC40 is 35 µM.

Consider `COc1ccc(S(=O)(=O)N(C)C[C@H]2Oc3c(NC(=O)Nc4ccc(C(F)(F)F)cc4)cccc3C(=O)N([C@H](C)CO)C[C@@H]2C)cc1`, for which the AC40 was 33.2 µM.

Regarding `COc1ccc(OC)c(S(=O)(=O)NCCCN2CCCC2=O)c1`, the AC40 was > 35 µM (inactive).
